Reference: ChEMBL document CHEMBL1201862, “PubChem BioAssay data set” (2004)
Activity calls are given as the source filed them.

What was measured:
[1] = target: Sphingosine 1-phosphate receptor 2 (Homo sapiens, UniProt O95136); assay: Dose Response Cell Based Assay for Agonists of the S1P2 Receptor of Purchased Analogues. [Related pubchem assays: 729, 843, 854, 736 ]; assay type: functional
[2] = target: T1, Induced myeloid leukemia cell differentiation protein Mcl-1 (Homo sapiens, UniProt Q07820); assay: MCL1-BIM BH3 interaction inhibitors, dose response, biochemical, fluorescence polarization, BIM-BH3 peptide, 1536-well (AID 2217)
Bcl-2-like protein 1 = Bcl-2-like protein 1 (Homo sapiens, UniProt Q07817); assay: BCL-XL inhibitors, dose response, selectivity assay for MCL1 inhibitor project, biochemical, fluorescence polarization, 1536-well (AID 2218)
[3] = target: T1, Induced myeloid leukemia cell differentiation protein Mcl-1; assay type: functional
[4] = target: T2, Carboxy-terminal domain RNA polymerase II polypeptide A small phosphatase 1 (Homo sapiens, UniProt Q9GZU7); assay: inhibitors of CTDSP1, concentration-response testing, biochemical assay, absorbance-based, actives from ultra-high-throughput screening (AID 540297); assay type: functional
T2 sequence (Q9GZU7 whole entry): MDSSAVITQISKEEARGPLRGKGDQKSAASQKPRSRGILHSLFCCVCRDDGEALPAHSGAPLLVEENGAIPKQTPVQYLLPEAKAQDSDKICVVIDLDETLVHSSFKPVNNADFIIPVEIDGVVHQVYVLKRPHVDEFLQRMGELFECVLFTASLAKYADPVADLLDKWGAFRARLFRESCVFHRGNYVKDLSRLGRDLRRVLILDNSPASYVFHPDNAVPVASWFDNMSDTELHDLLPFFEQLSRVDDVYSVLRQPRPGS

Vero = assay: cytotoxicity of synthesized analogs in Vero cells, SAR follow-up, cytotoxicity control for West Nile virus antiviral project, cell-based, set II (AID 2402); assay type: functional; conditions: Chlorocebus sabaeus
NADPH oxidase 1 [5] = target: T3, NADPH oxidase 1 (Homo sapiens, UniProt Q9Y5S8); assay type: functional, cell-based
[6] = target: Glyceraldehyde-3-phosphate dehydrogenase (Homo sapiens, UniProt P04406)
Bcl-2-related protein A1 [7] = target: T4, Bcl-2-related protein A1 (Mus musculus, UniProt Q07440); assay: Bfl-1 inhibitors blocking BH3 peptide binding, confirmation, biochemical, TR-FRET, mouse Bfl-1 (AID 621);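 also: TR-FRET binding of GST-Bfl-1 to FITC-labelled Bid peptide via terbium antibody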
T4 sequence (Q07440 whole entry): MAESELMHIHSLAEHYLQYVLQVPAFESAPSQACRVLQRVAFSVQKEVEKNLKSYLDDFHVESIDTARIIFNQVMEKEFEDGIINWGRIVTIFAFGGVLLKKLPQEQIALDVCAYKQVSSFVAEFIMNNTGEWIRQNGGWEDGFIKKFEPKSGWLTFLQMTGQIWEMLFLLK

Bcl-2-related protein A1 [8] = target: T4, Bcl-2-related protein A1; assay: Bfl-1 binding inhibitors, SAR follow-up, biochemical, fluorescence polarization (AID 1070)
[9] = target: Inward rectifier potassium channel 2 (Mus musculus, UniProt P35561); assay: Manual electrophysiological patch clamp assay for SAR compounds that inhibit/block inward-rectifying potassium ion channel Kir2.1. [Related pubchem assays: 1843 (Summary assay for Kir2.1 inhibitor assays.), 1672 (Primary HTS of 305616 compounds where 2592 were identified as active.)]; assay type: functional
[10] = M. tuberculosis growth inhibition, HTS (AID 449762); assay type: functional
[11] = target: T5, Tyrosine-protein phosphatase non-receptor type 7 (Homo sapiens, UniProt P35236); assay: inhibitors of human HePTP phosphatase, […], biochemical, absorbance, leukemia target (AID 521); assay type: functional
T5 sequence (P35236 whole entry): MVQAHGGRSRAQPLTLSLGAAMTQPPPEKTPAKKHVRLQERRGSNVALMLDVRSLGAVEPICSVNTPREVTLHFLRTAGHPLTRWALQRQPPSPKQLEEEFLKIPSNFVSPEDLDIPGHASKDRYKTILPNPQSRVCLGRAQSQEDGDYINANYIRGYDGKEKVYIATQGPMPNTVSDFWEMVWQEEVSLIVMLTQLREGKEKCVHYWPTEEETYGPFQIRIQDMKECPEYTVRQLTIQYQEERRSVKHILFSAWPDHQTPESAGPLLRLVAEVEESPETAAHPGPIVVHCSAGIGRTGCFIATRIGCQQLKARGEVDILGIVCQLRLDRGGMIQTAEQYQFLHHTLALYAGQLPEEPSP

NADPH oxidase 1 [12] = target: T3, NADPH oxidase 1; assay: Late-stage luminescence-based cell-based dose response assay to identify inhibitors of NADPH oxidase 1 (NOX1): Synthesized analogs 2.; assay type: functional
Cytochrome P450 2C19 = Cytochrome P450 2C19 (Homo sapiens, UniProt P33261); assay: qHTS Assay for Inhibitors and Substrates of Cytochrome P450 2C19. [Related pubchem assays: 410 ]; assay type: ADME; conditions: read-out: Potency
Cytochrome P450 2C9 = Cytochrome P450 2C9 (Homo sapiens, UniProt P11712); conditions: Potency
Genome polyprotein = Genome polyprotein (Hepatitis C virus, UniProt Q2Q167); assay: HCV core protein dimerization inhibitors, dose response, biochemical, TR-FRET (AID 2159); set-up: species or system Hepacivirus hominis;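 also: blocks dimerization of HCV core protein measured by TR-FRET between tagged core106 pairs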
[13] = THP-1 cell cytotoxicity, dose response, cytotoxicity control for Vif-APOBEC3G degradation inhibitor project, THP-1 cells (AID 1117359); assay type: functional; conditions: Human immunodeficiency virus 1, THP-1
Oxytocin receptor = Oxytocin receptor (Homo sapiens, UniProt P30559); assay: Fluorescence-based cell-based high throughput dose response assay for potentiators of Oxytocin Receptor (OXTR). [Related pubchem assays: 434985 (Confirmation screen (OXTR potentiators in triplicate)), 2481 (Summary (OXTR potentiators)), 2445 (Primary screen (OXTR potentiators in singlicate))]; assay type: functional
[14] = HEp-2 cell cytotoxicity, dose response, cytotoxicity control for RSV inhibitor project, HTS (AID 2410); assay type: functional; conditions: human respiratory syncytial virus
[15] = target: Aryl hydrocarbon receptor (Homo sapiens, UniProt P35869); assay: Luminescence-based cell-based high throughput dose response assay for activators of the Aryl Hydrocarbon Receptor (AHR). [Related pubchem assays: 2796 (Primary screen (AHR activators in singlicate)), 2845 (Confirmation screen (AHR activators in triplicate)), 434939 (Counterscreen (PXR activators in triplicate)), 2804 (Summary (AHR activators))]; assay type: ADME
[16] = Luminescence Cell-Based Dose Retest to Confirm Inhibitors of Cancer Stem Cells. [Related pubchem assays (depositor defined):AID2717, AID2721]; assay type: functional; conditions: Homo sapiens
[17] = target: Solute carrier family 12 member 2/member 5 (Homo sapiens, UniProt P55011+Q9H2X9); assay: KCC2 and NKCC1 inhibition by rubidium flux, cell-based, NKCC1 counter-screen (AID 1734); assay type: functional, HEK293

T3 sequence (Q9Y5S8 whole entry): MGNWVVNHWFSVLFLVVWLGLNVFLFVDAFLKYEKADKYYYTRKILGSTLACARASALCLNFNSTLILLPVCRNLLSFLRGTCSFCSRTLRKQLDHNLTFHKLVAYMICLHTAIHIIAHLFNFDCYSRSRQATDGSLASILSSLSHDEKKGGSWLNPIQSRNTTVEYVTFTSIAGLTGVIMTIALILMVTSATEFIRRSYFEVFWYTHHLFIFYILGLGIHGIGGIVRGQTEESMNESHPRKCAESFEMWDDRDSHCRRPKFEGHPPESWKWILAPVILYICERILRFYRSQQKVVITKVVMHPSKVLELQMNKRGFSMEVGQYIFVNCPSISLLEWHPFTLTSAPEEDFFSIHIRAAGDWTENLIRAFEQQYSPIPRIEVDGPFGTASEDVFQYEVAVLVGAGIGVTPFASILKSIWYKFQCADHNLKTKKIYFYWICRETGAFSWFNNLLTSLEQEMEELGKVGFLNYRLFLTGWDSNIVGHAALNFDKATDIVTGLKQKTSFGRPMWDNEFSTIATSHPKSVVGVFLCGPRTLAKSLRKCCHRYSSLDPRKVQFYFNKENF
T1 sequence (Q07820 whole entry): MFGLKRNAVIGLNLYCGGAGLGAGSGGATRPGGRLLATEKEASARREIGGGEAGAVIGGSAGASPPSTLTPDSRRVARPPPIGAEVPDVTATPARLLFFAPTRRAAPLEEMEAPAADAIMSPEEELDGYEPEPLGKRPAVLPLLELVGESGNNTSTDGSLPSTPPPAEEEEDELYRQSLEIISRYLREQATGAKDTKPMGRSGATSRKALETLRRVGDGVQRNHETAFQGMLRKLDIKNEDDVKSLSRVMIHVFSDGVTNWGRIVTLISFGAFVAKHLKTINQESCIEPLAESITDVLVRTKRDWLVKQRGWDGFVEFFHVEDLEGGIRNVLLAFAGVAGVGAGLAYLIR
Cytochrome P450 2C9, sequence (P11712 whole entry): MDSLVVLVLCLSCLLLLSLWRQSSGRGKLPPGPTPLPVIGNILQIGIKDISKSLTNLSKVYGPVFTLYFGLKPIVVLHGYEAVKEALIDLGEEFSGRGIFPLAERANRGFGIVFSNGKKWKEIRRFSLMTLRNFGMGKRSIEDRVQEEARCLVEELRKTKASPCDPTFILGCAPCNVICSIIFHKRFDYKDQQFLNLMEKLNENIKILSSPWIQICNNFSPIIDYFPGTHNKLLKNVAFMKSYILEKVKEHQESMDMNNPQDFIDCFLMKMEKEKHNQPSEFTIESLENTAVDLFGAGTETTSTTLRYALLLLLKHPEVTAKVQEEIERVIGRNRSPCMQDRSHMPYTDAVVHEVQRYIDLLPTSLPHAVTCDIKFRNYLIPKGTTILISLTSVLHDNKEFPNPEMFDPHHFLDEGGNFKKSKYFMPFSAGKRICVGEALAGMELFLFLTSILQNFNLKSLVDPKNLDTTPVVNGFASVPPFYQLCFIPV
Bcl-2-like protein 1, sequence (Q07817 whole entry): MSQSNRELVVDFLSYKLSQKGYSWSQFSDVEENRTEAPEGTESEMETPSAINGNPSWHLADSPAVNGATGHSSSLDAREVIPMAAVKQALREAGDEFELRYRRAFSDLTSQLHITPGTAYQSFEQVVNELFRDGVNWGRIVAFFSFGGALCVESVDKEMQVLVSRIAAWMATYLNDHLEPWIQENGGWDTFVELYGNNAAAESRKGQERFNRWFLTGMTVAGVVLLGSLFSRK
Inward rectifier potassium channel 2, sequence (P35561 whole entry): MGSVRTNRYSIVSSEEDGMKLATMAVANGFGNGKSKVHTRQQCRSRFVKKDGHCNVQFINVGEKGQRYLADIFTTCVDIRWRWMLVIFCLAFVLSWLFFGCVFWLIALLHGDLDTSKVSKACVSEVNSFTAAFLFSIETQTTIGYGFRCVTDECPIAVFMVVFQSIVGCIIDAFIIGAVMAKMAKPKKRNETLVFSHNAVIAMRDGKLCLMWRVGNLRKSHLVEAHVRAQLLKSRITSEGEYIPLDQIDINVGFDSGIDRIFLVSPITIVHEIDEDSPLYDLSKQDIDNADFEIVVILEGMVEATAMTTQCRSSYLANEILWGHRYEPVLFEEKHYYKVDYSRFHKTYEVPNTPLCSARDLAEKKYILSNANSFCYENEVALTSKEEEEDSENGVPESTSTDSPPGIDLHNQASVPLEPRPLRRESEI
Cytochrome P450 2C19, sequence (P33261 whole entry): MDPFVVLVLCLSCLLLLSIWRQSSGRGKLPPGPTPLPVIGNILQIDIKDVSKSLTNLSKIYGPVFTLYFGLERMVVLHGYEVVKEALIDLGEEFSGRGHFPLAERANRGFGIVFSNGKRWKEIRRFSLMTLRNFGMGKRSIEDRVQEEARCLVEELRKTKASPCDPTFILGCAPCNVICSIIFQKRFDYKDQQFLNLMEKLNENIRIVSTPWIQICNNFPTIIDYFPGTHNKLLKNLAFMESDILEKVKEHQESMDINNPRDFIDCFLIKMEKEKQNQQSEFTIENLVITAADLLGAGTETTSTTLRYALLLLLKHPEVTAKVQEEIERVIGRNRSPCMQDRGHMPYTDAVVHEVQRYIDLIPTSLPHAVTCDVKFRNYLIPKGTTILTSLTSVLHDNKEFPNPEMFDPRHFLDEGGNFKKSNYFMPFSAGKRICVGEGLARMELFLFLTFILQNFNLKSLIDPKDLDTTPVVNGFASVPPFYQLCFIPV
Genome polyprotein, sequence (Q2Q167 whole entry): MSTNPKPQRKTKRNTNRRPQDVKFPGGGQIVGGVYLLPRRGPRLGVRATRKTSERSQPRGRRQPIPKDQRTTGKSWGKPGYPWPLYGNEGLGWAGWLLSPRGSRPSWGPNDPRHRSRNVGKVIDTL
Glyceraldehyde-3-phosphate dehydrogenase, sequence (P04406 whole entry): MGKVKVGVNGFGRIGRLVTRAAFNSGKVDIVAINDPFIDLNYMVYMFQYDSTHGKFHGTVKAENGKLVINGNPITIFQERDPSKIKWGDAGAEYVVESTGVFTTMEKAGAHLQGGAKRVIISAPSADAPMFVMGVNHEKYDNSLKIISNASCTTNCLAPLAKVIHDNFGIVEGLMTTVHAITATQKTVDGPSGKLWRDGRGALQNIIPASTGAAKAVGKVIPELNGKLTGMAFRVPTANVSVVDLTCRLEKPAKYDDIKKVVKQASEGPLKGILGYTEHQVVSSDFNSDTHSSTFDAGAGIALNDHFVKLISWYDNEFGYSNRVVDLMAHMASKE
Sphingosine 1-phosphate receptor 2, sequence (O95136 whole entry): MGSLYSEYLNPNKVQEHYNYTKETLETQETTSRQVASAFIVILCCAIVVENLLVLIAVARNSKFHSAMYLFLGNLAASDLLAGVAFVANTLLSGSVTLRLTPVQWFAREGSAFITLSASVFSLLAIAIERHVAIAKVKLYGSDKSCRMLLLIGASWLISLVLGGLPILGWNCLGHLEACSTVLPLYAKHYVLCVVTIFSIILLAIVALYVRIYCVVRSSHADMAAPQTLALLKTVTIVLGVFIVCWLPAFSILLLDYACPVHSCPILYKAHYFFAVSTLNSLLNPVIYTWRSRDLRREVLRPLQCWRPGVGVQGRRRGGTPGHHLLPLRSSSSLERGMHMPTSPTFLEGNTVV
Oxytocin receptor, sequence (P30559 whole entry): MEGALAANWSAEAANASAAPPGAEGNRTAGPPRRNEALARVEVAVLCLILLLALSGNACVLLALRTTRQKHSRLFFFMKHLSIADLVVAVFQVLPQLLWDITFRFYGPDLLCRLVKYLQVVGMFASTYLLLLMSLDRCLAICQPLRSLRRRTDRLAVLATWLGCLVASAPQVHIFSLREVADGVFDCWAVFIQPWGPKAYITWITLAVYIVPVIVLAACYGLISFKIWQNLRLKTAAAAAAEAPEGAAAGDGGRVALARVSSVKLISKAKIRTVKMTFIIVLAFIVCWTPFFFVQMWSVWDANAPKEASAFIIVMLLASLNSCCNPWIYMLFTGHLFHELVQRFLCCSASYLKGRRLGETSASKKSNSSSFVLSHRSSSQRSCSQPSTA
Aryl hydrocarbon receptor, sequence (P35869 whole entry): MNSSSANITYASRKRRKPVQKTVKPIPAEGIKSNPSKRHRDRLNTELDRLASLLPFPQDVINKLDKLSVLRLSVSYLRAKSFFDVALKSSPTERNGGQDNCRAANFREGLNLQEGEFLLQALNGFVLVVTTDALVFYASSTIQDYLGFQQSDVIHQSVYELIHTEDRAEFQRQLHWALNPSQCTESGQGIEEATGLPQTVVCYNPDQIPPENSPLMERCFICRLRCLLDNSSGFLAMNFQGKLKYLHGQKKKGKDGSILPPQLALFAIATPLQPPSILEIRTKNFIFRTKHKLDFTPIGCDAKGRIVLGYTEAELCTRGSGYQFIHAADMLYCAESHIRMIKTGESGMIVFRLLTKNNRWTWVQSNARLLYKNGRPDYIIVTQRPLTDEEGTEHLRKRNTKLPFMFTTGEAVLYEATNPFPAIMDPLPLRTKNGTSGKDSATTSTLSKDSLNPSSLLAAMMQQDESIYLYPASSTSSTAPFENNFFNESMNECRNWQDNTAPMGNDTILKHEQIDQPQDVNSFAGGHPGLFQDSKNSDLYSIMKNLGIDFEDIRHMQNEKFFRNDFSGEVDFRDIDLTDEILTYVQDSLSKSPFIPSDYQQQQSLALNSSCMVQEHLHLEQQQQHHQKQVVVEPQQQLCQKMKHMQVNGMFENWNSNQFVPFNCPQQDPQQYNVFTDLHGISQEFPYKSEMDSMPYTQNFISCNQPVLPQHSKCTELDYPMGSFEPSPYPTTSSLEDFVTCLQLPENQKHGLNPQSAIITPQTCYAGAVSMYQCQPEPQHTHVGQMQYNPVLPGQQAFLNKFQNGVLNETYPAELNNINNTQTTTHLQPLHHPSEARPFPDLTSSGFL

CCNC(=O)CN(CC)CC(=O)c1cc(C)n(Cc2ccccc2)c1C
EC50 [1]: > 30 µM (not active)

O=C(/C=C/c1ccc(Cl)c([N+](=O)[O-])c1)Nc1ccc(N2CCCC2)cc1
IC50 [2]: 20.9 µM (not active)
IC50 (Bcl-2-like protein 1): > 109 µM (not active)
IC50 [3]: > 54 µM (active)
IC50 [4]: 3.29 µM (active)

O=c1c2cc([N+](=O)[O-])ccc2nc2n1CCC2
CC50 (Vero): > 100 µM (active)

COc1ccc(NC(=O)Nc2ccc3c(c2)CCN3C(C)=O)cc1
IC50 (NADPH oxidase 1 [5]): > 17 µM (not active)

CN1CCN(C2=CC(=O)N(c3ccc(Cl)cc3)C2=O)CC1
IC50 [6]: > 100 µM (not active)
IC50 (Bcl-2-related protein A1 [7]): > 100 µM (not active)
IC50 (Bcl-2-related protein A1 [8]): > 100 µM (not active)

COc1ccc(CNCc2ccccc2Cl)cc1
IC50 [9]: 13.3 µM (active)

CC1(CCc2ccccc2)N=C(S)N(c2ccc(Cl)cc2)N1 (centres undefined)
IC50 [10]: > 100 µM (active)

Brc1ccc(-c2nnc3sc(CNC4CCCC4)cn23)cc1
IC50 [11]: > 100 µM (not active)

ClCCN1c2ccccc2Sc2ccc(Cl)cc21
IC50 (NADPH oxidase 1 [12]): > 50 µM (not active)

CC1=C(\C=C/C(C)=C/C=C\C(C)=C\C(=O)Nc2ccc(O)cc2)C(C)(C)CCC1
AC50 (Cytochrome P450 2C19): 31.6 µM (inconclusive)
AC50 (Cytochrome P450 2C9): 7.94 µM (inconclusive)

CN(CC(=O)Nc1cccc(F)c1)C(=O)c1cccc(-n2cccc2)c1
IC50 (Genome polyprotein): > 49.8 µM (not active)
IC50 [4]: 6.19 µM (active)
CC50 [13]: > 40 µM (active)

Cc1cc(C)n(-c2cc(C(C)(C)C)nc3c(-c4ccc(Cl)cc4)cnn23)n1
EC50 (Oxytocin receptor): > 29.9 µM (not active)

COc1cc2c(cc1NC(=O)Nc1ccc(C)cc1)oc1ccccc12
CC50 [14]: 26.4 µM (active)
EC50 [15]: 1.47 µM (active)
AC50 [16]: 1.88 µM (active)

O=C(O)CCn1c(SCc2cccc3ccccc23)nc2ccccc21
IC50 [17]: 36 µM (active)
